# Measurements: ChEMBL document CHEMBL4689842, “EUbOPEN Chemogenomics Library wave 1” (2021)
# How the values were obtained:
# Format in all cases: toxicity, cell-based
# [1] = tested on: HEK-293T; test: Incucyte cell viability with HEK293T; conditions: human, 10 µM, compound concentration 10 uM
# [2] = tested on: U2OS; test: Incucyte cell viability with U2OS; conditions: human, 10 µM, compound concentration 10 uM
# [3] = tested on: Fibroblast; test: Incucyte cell viability with human fibroblast; conditions: 10 µM, compound concentration 10 uM
# [4] = 0 h, replicate number 1, timepoint 0 hours
# [5] = 0 h, replicate number 2, timepoint 0 hours
# [6] = 6 h, replicate number 1, timepoint 6 hours
# [7] = 6 h, replicate number 2, timepoint 6 hours
# [8] = 12 h, replicate number 1, timepoint 12 hours
# [9] = 18 h, replicate number 1, timepoint 18 hours
# [10] = 24 h, replicate number 1, timepoint 24 hours
# [11] = 12 h, replicate number 2, timepoint 12 hours
# [12] = 18 h, replicate number 2, timepoint 18 hours
# [13] = 24 h, replicate number 2, timepoint 24 hours
# Note: filed as whole numbers so only -1 and 0 and 1 occur.
smiles,measurement,setting,value
c1cc(CN2CCCNCCNCCCNCC2)ccc1CN1CCCNCCNCCCNCC1 [PLERIXAFOR],Growth Rate,[1]; [4],1
same,Growth Rate,[1]; [5],0
same,Growth Rate,[1]; [6],0
same,Growth Rate,[1]; [7],1
same,Growth Rate,[1]; [8],0
same,Growth Rate,[1]; [9],0
same,Growth Rate,[1]; [10],0
same,Growth Rate,[2]; [6],0
same,Growth Rate,[2]; [8],1
same,Growth Rate,[2]; [11],0
same,Growth Rate,[2]; [9],1
same,Growth Rate,[2]; [12],0
same,Growth Rate,[2]; [10],1
same,Growth Rate,[2]; [13],0
same,Growth Rate,[3]; [4],0
same,Growth Rate,[3]; [5],1
same,Growth Rate,[3]; [6],1
same,Growth Rate,[3]; [7],0
same,Growth Rate,[3]; [8],0
same,Growth Rate,[3]; [9],1
same,Growth Rate,[3]; [12],0
same,Growth Rate,[3]; [10],0
COc1ncc(F)cc1CNc1ccc(Cc2c[nH]c3ncc(C)cc23)c(F)n1 [PLX-5622],Growth Rate,[1]; [4],0
same,Growth Rate,[1]; [5],1
same,Growth Rate,[1]; [6],1
same,Growth Rate,[1]; [8],1
same,Growth Rate,[1]; [9],1
same,Growth Rate,[1]; [10],1
same,Growth Rate,[1]; [13],0
same,Growth Rate,[2]; [5],0
same,Growth Rate,[2]; [6],0
same,Growth Rate,[2]; [8],0
same,Growth Rate,[2]; [9],0
same,Growth Rate,[2]; [10],0
same,Growth Rate,[3]; [5],1
same,Growth Rate,[3]; [6],1
same,Growth Rate,[3]; [7],0
same,Growth Rate,[3]; [8],1
same,Growth Rate,[3]; [11],0
same,Growth Rate,[3]; [9],0
same,Growth Rate,[3]; [12],1
same,Growth Rate,[3]; [10],0
CC(C)NCC(O)COc1cccc2ccccc12.Cl (stereo not drawn) [PROPRANOLOL HYDROCHLORIDE],Growth Rate,[1]; [5],0
same,Growth Rate,[1]; [6],0
same,Growth Rate,[1]; [7],1
same,Growth Rate,[1]; [8],0
same,Growth Rate,[1]; [9],0
same,Growth Rate,[1]; [10],0
same,Growth Rate,[2]; [4],0
same,Growth Rate,[2]; [6],0
same,Growth Rate,[2]; [8],1
same,Growth Rate,[2]; [9],1
same,Growth Rate,[2]; [10],1
same,Growth Rate,[3]; [4],0
same,Growth Rate,[3]; [6],1
same,Growth Rate,[3]; [7],0
same,Growth Rate,[3]; [8],1
same,Growth Rate,[3]; [11],0
same,Growth Rate,[3]; [9],1
same,Growth Rate,[3]; [12],0
same,Growth Rate,[3]; [10],1
same,Growth Rate,[3]; [13],0
NC(=O)[C@@H]1CCCN1C(=O)[C@H](Cc1cnc[nH]1)NC(=O)[C@@H]1CCC(=O)N1 [PROTIRELIN],Growth Rate,[1]; [4],0
same,Growth Rate,[1]; [6],1
same,Growth Rate,[1]; [8],1
same,Growth Rate,[1]; [9],1
same,Growth Rate,[1]; [10],1
same,Growth Rate,[1]; [13],0
same,Growth Rate,[2]; [4],0
same,Growth Rate,[2]; [6],1
same,Growth Rate,[2]; [7],0
same,Growth Rate,[2]; [8],0
same,Growth Rate,[2]; [9],0
same,Growth Rate,[2]; [12],1
same,Growth Rate,[2]; [10],0
same,Growth Rate,[3]; [4],0
same,Growth Rate,[3]; [5],1
same,Growth Rate,[3]; [7],0
same,Growth Rate,[3]; [11],1
same,Growth Rate,[3]; [9],1
same,Growth Rate,[3]; [12],0
same,Growth Rate,[3]; [10],1
same,Growth Rate,[3]; [13],0
CCN1CCC[C@H]1CNC(=O)c1c(OC)ccc(Br)c1OC [REMOXIPRIDE],Growth Rate,[1]; [4],0
same,Growth Rate,[1]; [6],1
same,Growth Rate,[1]; [8],1
same,Growth Rate,[1]; [9],1
same,Growth Rate,[1]; [10],1
same,Growth Rate,[2]; [7],1
same,Growth Rate,[2]; [8],0
same,Growth Rate,[2]; [11],1
same,Growth Rate,[2]; [9],0
same,Growth Rate,[2]; [12],1
same,Growth Rate,[2]; [10],0
same,Growth Rate,[2]; [13],1
same,Growth Rate,[3]; [4],0
same,Growth Rate,[3]; [7],0
same,Growth Rate,[3]; [11],0
same,Growth Rate,[3]; [9],1
same,Growth Rate,[3]; [12],0
same,Growth Rate,[3]; [10],1
same,Growth Rate,[3]; [13],0
CN(CCOc1ccc(CC2SC(=O)NC2=O)cc1)c1ccccn1 (stereo not drawn) [ROSIGLITAZONE],Growth Rate,[1]; [4],1
same,Growth Rate,[1]; [5],0
same,Growth Rate,[1]; [6],1
same,Growth Rate,[1]; [7],0
same,Growth Rate,[1]; [8],1
same,Growth Rate,[1]; [11],0
same,Growth Rate,[1]; [9],1
same,Growth Rate,[1]; [12],0
same,Growth Rate,[1]; [10],1
same,Growth Rate,[1]; [13],0
same,Growth Rate,[2]; [4],0
same,Growth Rate,[2]; [6],0
same,Growth Rate,[2]; [7],1
same,Growth Rate,[2]; [8],1
same,Growth Rate,[2]; [9],1
same,Growth Rate,[2]; [10],1
same,Growth Rate,[3]; [4],0
same,Growth Rate,[3]; [7],0
same,Growth Rate,[3]; [8],1
same,Growth Rate,[3]; [11],0
same,Growth Rate,[3]; [9],1
same,Growth Rate,[3]; [12],0
same,Growth Rate,[3]; [10],1
Cc1cc(OCC(=O)O)cc(C)c1Cc1ccc(O)c(C(C)C)c1 [SOBETIROME],Growth Rate,[1]; [4],0
same,Growth Rate,[1]; [6],0
same,Growth Rate,[1]; [8],0
same,Growth Rate,[1]; [9],0
same,Growth Rate,[1]; [12],1
same,Growth Rate,[1]; [10],0
same,Growth Rate,[1]; [13],1
same,Growth Rate,[2]; [5],0
same,Growth Rate,[2]; [7],0
same,Growth Rate,[2]; [8],1
same,Growth Rate,[2]; [9],0
same,Growth Rate,[2]; [12],1
same,Growth Rate,[2]; [10],1
same,Growth Rate,[3]; [4],0
same,Growth Rate,[3]; [6],-1
same,Growth Rate,[3]; [7],0
same,Growth Rate,[3]; [11],0
same,Growth Rate,[3]; [9],1
same,Growth Rate,[3]; [10],0
same,Growth Rate,[3]; [13],1
O=C1c2ccc(Nc3ccc(F)cc3F)cc2CCc2ccc(OC[C@H](O)CO)cc21 [Skepinone-L],Growth Rate,[1]; [6],0
same,Growth Rate,[1]; [10],1
same,Growth Rate,[2]; [4],0
same,Growth Rate,[2]; [6],0
same,Growth Rate,[2]; [8],0
same,Growth Rate,[2]; [9],0
same,Growth Rate,[2]; [12],1
same,Growth Rate,[2]; [10],0
same,Growth Rate,[3]; [6],0
same,Growth Rate,[3]; [8],0
same,Growth Rate,[3]; [9],0
same,Growth Rate,[3]; [10],0
COc1cccc(CNC(=O)c2nc3scc(COCc4ccc(C(=O)O)cc4)c3c(=O)[nH]2)c1 [T-26c],Growth Rate,[1]; [4],0
same,Growth Rate,[1]; [5],1
same,Growth Rate,[1]; [9],1
same,Growth Rate,[1]; [10],1
same,Growth Rate,[2]; [4],0
same,Growth Rate,[2]; [6],1
same,Growth Rate,[2]; [7],0
same,Growth Rate,[2]; [8],1
same,Growth Rate,[2]; [11],0
same,Growth Rate,[2]; [9],1
same,Growth Rate,[2]; [10],1
same,Growth Rate,[3]; [5],0
same,Growth Rate,[3]; [7],0
same,Growth Rate,[3]; [8],1
same,Growth Rate,[3]; [11],0
same,Growth Rate,[3]; [9],1
same,Growth Rate,[3]; [12],0
same,Growth Rate,[3]; [10],1
CCOC(=O)c1ccc(C#Cc2ccc3c(c2)C(C)(C)CCS3)nc1 [TAZAROTENE],Growth Rate,[1]; [5],0
same,Growth Rate,[1]; [6],0
same,Growth Rate,[1]; [7],1
same,Growth Rate,[1]; [8],0
same,Growth Rate,[1]; [9],0
same,Growth Rate,[1]; [10],0
same,Growth Rate,[2]; [5],0
same,Growth Rate,[2]; [7],1
same,Growth Rate,[2]; [8],0
same,Growth Rate,[2]; [11],1
same,Growth Rate,[2]; [9],0
same,Growth Rate,[2]; [12],1
same,Growth Rate,[2]; [10],0
same,Growth Rate,[2]; [13],1
same,Growth Rate,[3]; [4],0
same,Growth Rate,[3]; [8],1
same,Growth Rate,[3]; [9],1
same,Growth Rate,[3]; [10],0
